We go through 28 molecules from US20230303553A1, “CDK6/DYRK2 DUAL-TARGET INHIBITOR, AND PREPARATION METHOD THEREFOR AND USE THEREOF” (JIANGSU TASLY DIYI PHARMACEUTICAL CO., LTD., priority 2021, published 2023).

The structures appear in SMILES notation. Counter-ions that a name gives are not always drawn.

By IC50 is commonly meant the midpoint of a concentration-inhibition curve. A high value points to weaker potency in that assay.

One assay has as its target CDK6 kinase (Homo sapiens (Human), UniProt Q00534). Briefly: CDK6 kinase activity, Lance Ultra TR-FRET. In kind it is biochemical. Background: Time-resolved FRET reads energy transfer from a long-lived donor to a nearby acceptor.
For a further assay, the target named is DYRK2 kinase (Homo sapiens (Human), UniProt Q92630). Kind of assay: DYRK2 kinase activity, 33P-ATP / Woodtide substrate. In kind it is biochemical.
DYRK2 kinase, sequence (Q92630 whole entry): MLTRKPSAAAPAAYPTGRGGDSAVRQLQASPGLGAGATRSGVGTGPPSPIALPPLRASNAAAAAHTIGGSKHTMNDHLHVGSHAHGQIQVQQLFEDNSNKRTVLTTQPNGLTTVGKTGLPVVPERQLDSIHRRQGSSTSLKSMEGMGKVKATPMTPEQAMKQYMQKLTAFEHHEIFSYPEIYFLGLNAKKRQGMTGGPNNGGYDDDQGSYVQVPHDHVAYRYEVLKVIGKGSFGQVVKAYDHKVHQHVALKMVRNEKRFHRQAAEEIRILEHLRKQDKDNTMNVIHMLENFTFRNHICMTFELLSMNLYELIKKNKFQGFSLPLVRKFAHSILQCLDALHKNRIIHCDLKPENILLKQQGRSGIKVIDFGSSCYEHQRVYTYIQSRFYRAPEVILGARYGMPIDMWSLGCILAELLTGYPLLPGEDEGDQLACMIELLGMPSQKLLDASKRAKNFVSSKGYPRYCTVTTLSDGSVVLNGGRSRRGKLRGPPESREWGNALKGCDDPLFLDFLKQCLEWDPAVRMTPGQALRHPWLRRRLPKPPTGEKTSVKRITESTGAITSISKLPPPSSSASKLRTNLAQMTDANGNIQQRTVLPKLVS

CDK6 kinase, sequence (Q00534 whole entry): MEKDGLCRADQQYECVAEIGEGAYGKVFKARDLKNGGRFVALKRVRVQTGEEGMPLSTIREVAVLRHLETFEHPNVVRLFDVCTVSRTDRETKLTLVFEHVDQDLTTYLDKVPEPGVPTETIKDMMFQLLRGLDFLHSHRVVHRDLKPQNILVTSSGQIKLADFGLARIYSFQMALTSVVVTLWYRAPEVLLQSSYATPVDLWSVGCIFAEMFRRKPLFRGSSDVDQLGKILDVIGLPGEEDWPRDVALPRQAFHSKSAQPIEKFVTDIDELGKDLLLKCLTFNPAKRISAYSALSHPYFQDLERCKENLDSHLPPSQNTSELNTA
CDK6 kinase, sequence (P24385 whole entry partner): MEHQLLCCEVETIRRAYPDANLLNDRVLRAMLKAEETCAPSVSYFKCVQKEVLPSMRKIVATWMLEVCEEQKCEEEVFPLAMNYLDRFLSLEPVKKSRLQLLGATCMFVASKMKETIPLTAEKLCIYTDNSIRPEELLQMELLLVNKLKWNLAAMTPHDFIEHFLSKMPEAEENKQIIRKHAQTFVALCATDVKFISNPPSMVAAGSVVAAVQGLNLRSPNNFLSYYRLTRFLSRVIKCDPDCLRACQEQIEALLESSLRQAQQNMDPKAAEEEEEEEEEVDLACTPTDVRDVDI

With `CN(C)c1nc2ccc(-c3nc(Nc4ccc(CN5CCN(C(=O)OC(C)(C)C)CC5)cn4)ncc3F)cc2s1` [Example 32, tert-butyl 4-((6-((4-(2-(dimethylamino)benzothiazole-6-yl)-5-fluoropyrimidine-2-yl)amino)pyridine-3-yl)methyl)piperazine-1-carboxylate], at CDK6 kinase, the IC50 was above 10000 nM.
In the case of `CC(C)N1CCN(Cc2ccc(Nc3ncc(F)c(-c4ccc5nc(N(C)C)sc5c4)n3)nc2)CC1` [Example 36, 6-(5-fluoro-2-((5-((4-isopropylpiperazine-1-yl)methyl)pyridine-2-yl)amino)pyrimidine-4-yl)-N,N-dimethylbenzothiazole-2-amine], on CDK6 kinase, the IC50 came out at 142 nM.
With `CN(C)c1nc2ccc(-c3nc(Nc4ccc(N5CCNCC5)cn4)ncc3F)cc2s1` [Example 41, 6-(5-fluoro-2-((5-(piperazine-1-yl)pyridine-2-yl)amino)pyrimidine-4-yl)-N,N-dimethylbenzothiazole-2-amine hydrochloride], it took 61 nM to reach half-maximal inhibition at CDK6 kinase (IC50).
Regarding `CC(C)N1CCN(Cc2ccc(Nc3ncc(F)c(-c4ccc5ncsc5c4)n3)nc2)CC1` [Example 11, 4-(benzothiazole-6-yl)-5-fluoro-N-(5-((4-isopropylpiperazine-1-yl)methyl)pyridine-2-yl)pyrimidine-2-amine], the IC50 at CDK6 kinase is 175 nM; against DYRK2 kinase, 263 nM.
With `Cc1nc2ccc(-c3nc(Nc4ccc(C(=O)N5CCN(C(=O)OC(C)(C)C)CC5)cn4)ncc3F)cc2s1` [Example 16, tert-butyl 4-(6-((5-fluoro-4-(2-methylbenzothiazole-6-yl)pyrimidine-2-yl)amino)nicotinoyl)piperazine-1-carboxylate], on CDK6 kinase, the IC50 is 86 nM.
For `CC(C)N1CCN(C(=O)c2ccc(Nc3ncc(F)c(-c4ccc5nc(N(C)C)sc5c4)n3)nc2)CC1` [Example 39, (6-((4-(2-(dimethylamino)benzothiazole-6-yl)-5-fluoropyrimidine-2-yl)amino)pyridine-3-yl)(4-isopropylpiperazine-1-yl)ketone], the half-inhibitory concentration (IC50) on CDK6 kinase was 57 nM; on DYRK2 kinase, 16 nM.
On CDK6 kinase, `CCN1CCN(Cc2ccc(Nc3ncc(F)c(-c4ccc5ncsc5c4)n3)nc2)CC1` [Example 2, 4-(benzothiazole-6-yl)-N-(5-((4-ethylpiperazine-1-yl)methyl)pyridine-2-yl)-5-fluoropyrimidine-2-amine] returned an IC50 of 244 nM.
As for `CCN1CCN(C(=O)c2ccc(Nc3ncc(F)c(-c4ccc5ncsc5c4)n3)nc2)CC1` [Example 1, (6-((4-(benzothiazole-6-yl)-5-fluoropyrimidine-2-yl)amino)pyridine-3-yl)(4-ethylpiperazine-1-yl)ketone], at CDK6 kinase, the IC50 is 144 nM.
On CDK6 kinase, `CCN(CC)c1nc2ccc(-c3nc(Nc4ccc(CN5CCN(C(=O)OC(C)(C)C)CC5)cn4)ncc3F)cc2s1` [Example 44, tert-butyl 4-((6-((4-(2-(diethylamino)benzothiazole-6-yl)-5-fluoropyrimidine-2-yl)amino)pyridine-3-yl)methyl)piperazine-1-carboxylate] showed an IC50 above 1000 nM.
With `CCOC(=O)N1CCN(Cc2ccc(Nc3ncc(F)c(-c4ccc5nc(N(CC)CC)sc5c4)n3)nc2)CC1` [Example 49, ethyl 4-((6-((4-(2-(diethylamino)benzothiazole-6-yl)-5-fluoropyrimidine-2-yl)amino)pyridine-3-yl)methyl)piperazine-1-carboxylate], on CDK6 kinase, the concentration for half-maximal inhibition (IC50) is above 10000 nM.
Consider `CCN(CC)c1nc2ccc(-c3nc(Nc4ccc(CN5CCN(S(C)(=O)=O)CC5)cn4)ncc3F)cc2s1` [Example 48, N,N-diethyl-6-(5-fluoro-2-((5-((4-(methanesulfonyl)piperazine-1-yl)methyl)pyridine-2-yl)amino)pyrimidine-4-yl)benzothiazole-2-amine], for which the IC50 at CDK6 kinase was above 10000 nM.
`CCN(CC)c1nc2ccc(-c3nc(Nc4ccc(C(=O)N5CCN(C(C)C)CC5)cn4)ncc3F)cc2s1` [Example 51, (6-((4-(2-(diethylamino)benzothiazole-6-yl)-5-fluoropyrimidine-2-yl)amino)pyridine-3-yl)(4-isopropylpiperazine-1-yl)ketone] showed an IC50 against CDK6 kinase of 8 nM.
On to `CN(C)c1nc2ccc(-c3nc(Nc4ccc(C(=O)N5CCN(C(=O)OC(C)(C)C)CC5)cn4)ncc3F)cc2s1` [Example 34, tert-butyl 4-(6-((4-(2-(dimethylamino)benzothiazole-6-yl)-5-fluoropyrimidine-2-yl)amino)nicotinoyl)piperazine-1-carboxylate], for which the IC50 at CDK6 kinase was above 10000 nM.
The molecule `Fc1cnc(Nc2ccc(CN3CCNCC3)cn2)nc1-c1ccc2ncsc2c1` [Example 4, 4-(benzothiazole-6-yl)-5-fluoro-N-(5-(piperazine-1-ylmethyl)pyridine-2-yl)pyrimidine-2-amine hydrochloride] registered an IC50 against CDK6 kinase of 268 nM.
As to `Cc1nc2ccc(-c3nc(Nc4ccc(C(=O)N5CCNCC5)cn4)ncc3F)cc2s1` [Example 17, (6-((5-fluoro-4-(2-methylbenzothiazole-6-yl)pyrimidine-2-yl)amino)pyridine-3-yl)(piperazine-1-yl)ketone hydrochloride], the 50% inhibitory concentration (IC50) worked out at 93 nM at CDK6 kinase and 27 nM at DYRK2 kinase.
At CDK6 kinase, `CCN(CC)c1nc2ccc(-c3nc(Nc4ccc(CN5CCN(C(C)C)CC5)cn4)ncc3F)cc2s1` [Example 50] displayed a concentration for half-maximal inhibition (IC50) of 31 nM.
Still for that read-out and setting: under `CN(C)c1nc2ccc(-c3nc(Nc4ccc(CN5CCN(S(C)(=O)=O)CC5)cn4)ncc3F)cc2s1` [Example 37, 6-(5-fluoro-2-((5-((4-(methanesulfonyl)piperazine-1-yl)methyl)pyridine-2-yl)amino)pyrimidine-4-yl)-N,N-dimethylbenzothiazole-2-amine] stands above 10000 nM; under `CCOC(=O)N1CCN(Cc2ccc(Nc3ncc(F)c(-c4ccc5ncsc5c4)n3)nc2)CC1` [Example 10, ethyl 4-((6-((4-(benzothiazole-6-yl)-5-fluoropyrimidine-2-yl)amino)pyridine-3-yl)methyl)piperazine-1-carboxylate], 169 nM; under `CCOC(=O)N1CCN(Cc2ccc(Nc3ncc(F)c(-c4ccc5nc(N(C)C)sc5c4)n3)nc2)CC1` [Example 38, ethyl 4-((6-((4-(2-(dimethylamino)benzothiazole-6-yl)-5-fluoropyrimidine-2-yl)amino)pyridine-3-yl)methyl)piperazine-1-carboxylate], above 1000 nM.
Regarding `CN(C)c1nc2ccc(-c3nc(Nc4ccc(N5CCN(C(=O)OC(C)(C)C)CC5)cn4)ncc3F)cc2s1` [Example 40, tert-butyl 4-(6-((4-(2-(dimethylamino)benzothiazole-6-yl)-5-fluoropyrimidine-2-yl)amino)pyridine-3-yl)piperazine-1-carboxylate], on CDK6 kinase, the IC50 is above 1000 nM.
In the case of `CCN1CCN(Cc2ccc(Nc3ncc(F)c(-c4ccc5nc(N(CC)CC)sc5c4)n3)nc2)CC1` [Example 43], the values for the IC50 at CDK6 kinase and against DYRK2 kinase were 15 nM and 197 nM, respectively.
`CN(C)c1nc2ccc(-c3nc(Nc4ccc(CN5CCNCC5)cn4)ncc3F)cc2s1` [Example 33, 6-(5-fluoro-2-((5-(piperazine-1-ylmethyl)pyridine-2-yl)amino)pyrimidine-4-yl)-N,N-dimethylbenzothiazole-2-amine hydrochloride]: at CDK6 kinase, it took 59 nM to reach half-maximal inhibition (IC50).
The same measure, in the same setting: under `CCN1CCN(Cc2ccc(Nc3ncc(F)c(-c4ccc5nc(N(C)C)sc5c4)n3)nc2)CC1` [Example 30, 6-(2-((5-((4-ethylpiperazine-1-yl)methyl)pyridine-2-yl)amino)-5-fluoropyrimidine-4-yl)-N,N-dimethylbenzothiazole-2-amine] stands 254 nM; under `CC(C)(C)OC(=O)N1CCN(c2ccc(Nc3ncc(F)c(-c4ccc5ncsc5c4)n3)nc2)CC1` [Example 7, tert-butyl 4-(6-((4-(benzothiazole-6-yl)-5-fluoropyrimidine-2-yl)amino)pyridine-3-yl)piperazine-1-carboxylate], above 10000 nM; under `CN(C)c1nc2ccc(-c3nc(Nc4ccc(C(=O)N5CCNCC5)cn4)ncc3F)cc2s1` [Example 35, (6-((4-(2-(dimethylamino)benzothiazole-6-yl)-5-fluoropyrimidine-2-yl)amino)pyridine-3-yl)(piperazine-1-yl)ketone hydrochloride], 41 nM.
Regarding `Fc1cnc(Nc2ccc(N3CCNCC3)cn2)nc1-c1ccc2ncsc2c1` [Example 8, 4-(benzothiazole-6-yl)-5-fluoro-N-(5-(piperazine-1-yl)pyridine-2-yl)pyrimidine-2-amine hydrochloride], the half-maximal inhibitory concentration (IC50) against CDK6 kinase was 129 nM; against DYRK2 kinase it was 85 nM.
For the molecule `CC(C)(C)OC(=O)N1CCN(Cc2ccc(Nc3ncc(F)c(-c4ccc5ncsc5c4)n3)nc2)CC1` [Example 3, tert-butyl 4-((6-((4-(benzothiazole-6-yl)-5-fluoropyrimidine-2-yl)amino)pyridine-3-yl)methyl)piperazine-1-carboxylate], at CDK6 kinase, it took 272 nM to reach half-maximal inhibition (IC50).
Regarding `CCN(CC)c1nc2ccc(-c3nc(Nc4ccc(CN5CCNCC5)cn4)ncc3F)cc2s1` [Example 45, N,N-diethyl-6-(5-fluoro-2-((5-(piperazine-1-ylmethyl)pyridine-2-yl)amino)pyrimidine-4-yl)benzothiazole-2-amine hydrochloride], the IC50 stood at 45 nM against CDK6 kinase and 290 nM against DYRK2 kinase.
